Laboratory results from PMC11012124, “Synthesis of Novel Triazine-Based Chalcones and 8,9-dihydro-7H-pyrimido[4,5-b][1,4]diazepines as Potential Leads in the Search of Anticancer, Antibacterial and Antifungal Agents” (International Journal of Molecular Sciences, 2024).
Converted amounts (≈) assume the structure as drawn.

Tests used:
[1] = system: 60 cancer cell lines; test: NCI-60 one-dose screen (10 μM); assay type: cell-based; conditions: Homo sapiens; one dose of 10 μM, mean over 60 cancer cell lines; read-out: Mean Growth Percent (MGP)
From the text: Additionally, the mean of the growth percentages (MGP) of each compound against all the 60 cancer cell lines is also reported, which is used as one of the selection criteria to continue with tests at five concentration doses.

[2] = system: N. gonorrhoeae ATCC 49226; test: MIC on GC agar plates; assay type: cell-based, Neisseria gonorrhoeae; conditions: Neisseria gonorrhoeae, ATCC49226, read-out: MIC
Summary of the method: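 Agar dilution was used: GC agar with 1% IsoVitaleX containing increasing compound concentrations was inoculated with 1 × 10^4 CFU. The MIC was taken as the lowest concentration inhibiting growth, with growth confirmed by oxidase test, in duplicate across at least two independent experiments.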

[3] = Hemolytic activity, spectrophotometric; assay type: cell-based, human; conditions: human, human red blood cells (huRBC), 5% hematocrit, 200 μg/mL, 37 °C
[4] = system: RPMI-8226; test: cells; conditions: Homo sapiens, RPMI-8226, 48 h; for CC50: read-out: LC50
[5] = system: SR; test: cells; conditions: Homo sapiens, 48 h
[6] = system: HOP-62; test: cells; conditions: Homo sapiens, HOP-62, 48 h; for CC50: read-out: LC50
[7] = system: NCI-H226; test: cells; conditions: Homo sapiens, NCI-H226, 48 h; for CC50: read-out: LC50
[8] = system: NCI-H322M; test: cells; conditions: Homo sapiens, 48 h; for CC50: read-out: LC50
[9] = system: HCT-15; test: cells; conditions: Homo sapiens, HCT-15, 48 h; for CC50: read-out: LC50
[10] = system: SW-620; test: cells; conditions: Homo sapiens, SW-620, 48 h; for CC50: read-out: LC50
[11] = system: SF-295; test: cells; conditions: Homo sapiens, SF-295, 48 h; for CC50: read-out: LC50
[12] = system: MALME-3M; test: cells; conditions: Homo sapiens, 48 h
[13] = system: MDA-MB-435; test: cells; conditions: Homo sapiens, MDA-MB-435, 48 h; for CC50: read-out: LC50
[14] = system: IGROV1; test: cells; conditions: Homo sapiens, IGROV-1, 48 h
[15] = system: OVCAR-4; test: cells; conditions: Homo sapiens, OVCAR-4, 48 h; for CC50: read-out: LC50
[16] = system: OVCAR-5; test: cells; conditions: Homo sapiens, OVCAR-5, 48 h; for CC50: read-out: LC50
[17] = system: OVCAR-8; test: cells; conditions: Homo sapiens, OVCAR-8, 48 h; for CC50: read-out: LC50
[18] = system: NCI/ADR-RES; test: cells; conditions: Homo sapiens, 48 h; for CC50: read-out: LC50
[19] = system: SK-OV-3; test: cells; conditions: Homo sapiens, SK-OV-3, 48 h; for CC50: read-out: LC50
[20] = system: ACHN; test: cells; conditions: Homo sapiens, 48 h; for CC50: read-out: LC50
[21] = system: RXF 393; test: cells; conditions: Homo sapiens, RXF 393, 48 h
[22] = system: TK-10; test: cells; conditions: Homo sapiens, TK-10, 48 h; for CC50: read-out: LC50
[23] = system: DU-145; test: cells; conditions: Homo sapiens, DU-145, 48 h; for CC50: read-out: LC50
[24] = system: MCF7; test: cells; conditions: Homo sapiens, MCF7, 48 h; for CC50: read-out: LC50
[25] = system: BT-549; test: cells; conditions: Homo sapiens, BT-549, 48 h; for CC50: read-out: LC50

Nc1nc(N)c2c(n1)NC(c1ccc(F)cc1)CC(c1ccc(Nc3nc(NCCO)nc(Nc4ccc(Cl)cc4)n3)cc1)=N2 (centres unmarked) [33f]
activity at 10 µM [1]: -3.41% | MIC [2]: 1 µg/mL (≈ 1.59 µM) | hemolysis at 24 h, 200 µg/mL [3]: 5% | GI50 [4]: 1.01 µM | CC50 [4]: > 100 µM | GI50 [5]: 0.672 µM | CC50 ([5]; read-out: LC50): > 100 µM | GI50 [6]: 1.77 µM | CC50 [6]: 11.7 µM | GI50 [7]: 2.49 µM | CC50 [7]: 37.9 µM | GI50 [8]: 2.43 µM | CC50 [8]: 33.5 µM | GI50 [9]: 1.03 µM | CC50 [9]: 7.87 µM | GI50 [10]: 1.6 µM | CC50 [10]: 6.68 µM | GI50 [11]: 1.96 µM | CC50 [11]: 7.15 µM | GI50 [12]: 1.66 µM | GI50 [13]: 1.7 µM | CC50 [13]: 7.42 µM | GI50 [14]: 1.7 µM | GI50 [15]: 1.93 µM | CC50 [15]: > 100 µM | GI50 [16]: 5.1 µM | CC50 [16]: > 100 µM | GI50 [17]: 1.16 µM | CC50 [17]: 6.81 µM | GI50 [18]: 7.73 µM | CC50 [18]: > 100 µM | GI50 [19]: 12.9 µM | CC50 [19]: 50.5 µM | GI50 [20]: 3.22 µM | CC50 [20]: > 100 µM | GI50 [21]: 1.17 µM | CC50 ([21]; read-out: LC50): 5.9 µM | GI50 [22]: 4.61 µM | CC50 [22]: 45.5 µM | GI50 [23]: 1.75 µM | CC50 [23]: 7 µM | GI50 [24]: 0.956 µM | CC50 [24]: 6 µM | GI50 [25]: 1.56 µM | CC50 [25]: 6.47 µM

Nc1nc(N)c2c(n1)NC(c1ccccc1)CC(c1ccc(Nc3nc(NCCO)nc(Nc4ccc(Cl)cc4)n3)cc1)=N2 (centres unmarked) [33a]
activity at 10 µM [1]: 25.3% | MIC [2]: 1 µg/mL (≈ 1.64 µM) | hemolysis at 24 h, 200 µg/mL [3]: 8% | GI50 [4]: 1.38 µM | CC50 [4]: > 100 µM | GI50 [5]: 0.55 µM | GI50 [6]: 1.74 µM | CC50 [6]: 6.07 µM | GI50 [7]: 11.5 µM | CC50 [7]: 85 µM | GI50 [8]: 1.63 µM | CC50 [8]: 5.67 µM | GI50 [9]: 1.38 µM | CC50 [9]: 5.87 µM | GI50 [10]: 1.87 µM | CC50 [10]: 6.48 µM | GI50 [11]: 1.57 µM | CC50 [11]: 5.63 µM | GI50 [12]: 1.76 µM | GI50 [13]: 1.74 µM | CC50 [13]: 5.78 µM | GI50 [14]: 1.56 µM | CC50 ([14]; read-out: LC50): 6.29 µM | GI50 [15]: 1.72 µM | CC50 [15]: 8.19 µM | GI50 [16]: 1.94 µM | CC50 [16]: 7.25 µM | GI50 [17]: 1.46 µM | CC50 [17]: 6.59 µM | GI50 [18]: 4.33 µM | CC50 [18]: > 100 µM | GI50 [19]: 17.7 µM | CC50 [19]: 57.9 µM | GI50 [20]: 1.95 µM | CC50 [20]: 9.76 µM | GI50 [21]: 1.63 µM | GI50 [22]: 2.09 µM | CC50 [22]: 7.16 µM | GI50 [23]: 1.8 µM | CC50 [23]: 6.34 µM | GI50 [24]: 1.51 µM | CC50 [24]: 6.1 µM | GI50 [25]: 1.77 µM | CC50 [25]: 5.81 µM
